Measured values reported in ChEMBL document CHEMBL4610054, “Design, synthesis, and structure-activity relationship studies of novel triazole agents with strong antifungal activity against Aspergillus fumigatus” (2020).
≈ marks a conversion by molar mass, not a printed value.

How the values were obtained:
Type in all cases: functional
[1] = tested on: Candida albicans; assay: Antifungal activity against Candida albicans SC5314 by NCCLS protocol based broth microdilution assay
[2] = tested on: Cryptococcus neoformans; assay: Antifungal activity against Cryptococcus neoformans 32605 by NCCLS protocol based broth microdilution assay
[3] = tested on: Aspergillus fumigatus; assay: Antifungal activity against Aspergillus fumigatus 7544 by NCCLS protocol based broth microdilution assay
[4] = tested on: Candida albicans; assay: Antifungal activity against Candida albicans Y0109 by NCCLS protocol based broth microdilution assay
[5] = tested on: Candida parapsilosis; assay: Antifungal activity against Candida parapsilosis 22019 by NCCLS protocol based broth microdilution assay; conditions: Lodderomyces parapsilosis
[6] = tested on: Nakaseomyces glabratus; assay: Antifungal activity against Candida glabrata 537 by NCCLS protocol based broth microdilution assay
[7] = tested on: Nannizzia gypsea; assay: Antifungal activity against Microsporum gypseum CMCC by NCCLS protocol based broth microdilution assay
[8] = tested on: Candida albicans; assay: Antifungal activity against fluconazole-resistant Candida albicans isolate 100 by NCCLS protocol based broth microdilution method
[9] = tested on: Candida albicans; assay: Antifungal activity against fluconazole-resistant Candida albicans isolate 103 by NCCLS protocol based broth microdilution method

Compound | MIC [1] [µg/mL] | MIC [2] [µg/mL] | MIC [3] [µg/mL] | MIC [4] [µg/mL] | MIC [5] [µg/mL] | MIC [6] [µg/mL] | MIC [7] [µg/mL] | MIC [8] [µg/mL] | MIC [9] [µg/mL]
C[C@@H](n1nnc2ccc(Br)cc2c1=O)[C@](O)(Cn1cncn1)c1ccc(F)cc1F | 0.125 (≈ 0.262 µM) | 2 (≈ 4.19 µM) | > 64 | – | – | – | – | – | –
C[C@@H](n1nnc2cc(C(F)(F)F)ccc2c1=O)[C@](O)(Cn1cncn1)c1ccc(F)cc1F | 0.0156 (≈ 0.0334 µM) | 0.125 (≈ 0.268 µM) | 4 (≈ 8.58 µM) | 0.0156 (≈ 0.0334 µM) | 0.0313 (≈ 0.0671 µM) | 0.0313 (≈ 0.0671 µM) | 2 (≈ 4.29 µM) | – | –
C[C@@H](n1nnc2cc(F)ccc2c1=O)[C@](O)(Cn1cncn1)c1ccc(F)cc1F | 0.0156 (≈ 0.0375 µM) | 0.25 (≈ 0.6 µM) | 1 (≈ 2.4 µM) | 0.0156 (≈ 0.0375 µM) | 0.0313 (≈ 0.0752 µM) | 0.0313 (≈ 0.0752 µM) | 2 (≈ 4.8 µM) | 32 (≈ 76.9 µM) | 64 (≈ 154 µM)
Cc1ccc2c(=O)n([C@H](C)[C@](O)(Cn3cncn3)c3ccc(F)cc3F)nnc2c1 | 0.0156 (≈ 0.0378 µM) | 0.125 (≈ 0.303 µM) | 2 (≈ 4.85 µM) | 0.0156 (≈ 0.0378 µM) | 0.0313 (≈ 0.0759 µM) | 0.0156 (≈ 0.0378 µM) | 2 (≈ 4.85 µM) | – | –
C[C@@H](n1nnc2c(F)cccc2c1=O)[C@](O)(Cn1cncn1)c1ccc(F)cc1F | 0.5 (≈ 1.2 µM) | 0.0313 (≈ 0.0752 µM) | > 64 | – | – | – | – | – | –
C[C@@H](n1nnc2cc(I)ccc2c1=O)[C@](O)(Cn1cncn1)c1ccc(F)cc1F | 0.0156 (≈ 0.0298 µM) | 0.125 (≈ 0.238 µM) | 1 (≈ 1.91 µM) | 0.0156 (≈ 0.0298 µM) | 0.0625 (≈ 0.119 µM) | 0.0313 (≈ 0.0597 µM) | 1 (≈ 1.91 µM) | > 64 | > 64
C[C@@H](n1nnc2cc([N+](=O)[O-])ccc2c1=O)[C@](O)(Cn1cncn1)c1ccc(F)cc1F | 0.0156 (≈ 0.0352 µM) | 0.25 (≈ 0.564 µM) | 4 (≈ 9.02 µM) | 0.0156 (≈ 0.0352 µM) | 0.0313 (≈ 0.0706 µM) | 0.0313 (≈ 0.0706 µM) | 4 (≈ 9.02 µM) | – | –
C[C@@H](n1nnc2cc(F)c(F)cc2c1=O)[C@](O)(Cn1cncn1)c1ccc(F)cc1F | 0.0313 (≈ 0.0721 µM) | 0.5 (≈ 1.15 µM) | 2 (≈ 4.6 µM) | 0.0156 (≈ 0.0359 µM) | 0.0313 (≈ 0.0721 µM) | 0.0625 (≈ 0.144 µM) | 1 (≈ 2.3 µM) | – | –
C[C@@H](n1nnc2ccc(Cl)cc2c1=O)[C@](O)(Cn1cncn1)c1ccc(F)cc1F | 0.0313 (≈ 0.0723 µM) | 0.5 (≈ 1.16 µM) | > 64 | – | – | – | – | – | –
C[C@@H](n1nnc2ccc(I)cc2c1=O)[C@](O)(Cn1cncn1)c1ccc(F)cc1F | 0.125 (≈ 0.238 µM) | 0.5 (≈ 0.954 µM) | 32 (≈ 61 µM) | – | – | – | – | – | –
C[C@@H](n1nnc2cc(Cl)ccc2c1=O)[C@](O)(Cn1cncn1)c1ccc(F)cc1F | 0.0156 (≈ 0.036 µM) | 0.0313 (≈ 0.0723 µM) | 0.25 (≈ 0.578 µM) | 0.0156 (≈ 0.036 µM) | 0.0156 (≈ 0.036 µM) | 0.0156 (≈ 0.036 µM) | 0.25 (≈ 0.578 µM) | 8 (≈ 18.5 µM) | 2 (≈ 4.62 µM)
C[C@@H](n1nnc2c(ccc3ccccc32)c1=O)[C@](O)(Cn1cncn1)c1ccc(F)cc1F | 0.125 (≈ 0.279 µM) | 0.5 (≈ 1.11 µM) | > 64 | – | – | – | – | – | –
C[C@@H](n1nnc2cccc(Br)c2c1=O)[C@](O)(Cn1cncn1)c1ccc(F)cc1F | 0.25 (≈ 0.524 µM) | 0.0625 (≈ 0.131 µM) | 32 (≈ 67 µM) | – | – | – | – | – | –
C[C@@H](n1nnc2cccc(F)c2c1=O)[C@](O)(Cn1cncn1)c1ccc(F)cc1F | 0.5 (≈ 1.2 µM) | 0.0625 (≈ 0.15 µM) | > 64 | – | – | – | – | – | –
C[C@@H](n1nnc2cc(Br)ccc2c1=O)[C@](O)(Cn1cncn1)c1ccc(F)cc1F | 0.0156 (≈ 0.0327 µM) | 0.0625 (≈ 0.131 µM) | 0.5 (≈ 1.05 µM) | 0.0156 (≈ 0.0327 µM) | 0.0313 (≈ 0.0656 µM) | 0.0156 (≈ 0.0327 µM) | 0.5 (≈ 1.05 µM) | 16 (≈ 33.5 µM) | 32 (≈ 67 µM)
C[C@@H](n1nnc2ccccc2c1=O)[C@](O)(Cn1cncn1)c1ccc(F)cc1F | 0.0313 (≈ 0.0786 µM) | 0.25 (≈ 0.628 µM) | 4 (≈ 10 µM) | 0.0156 (≈ 0.0392 µM) | 0.0313 (≈ 0.0786 µM) | 0.0625 (≈ 0.157 µM) | 2 (≈ 5.02 µM) | – | –
COc1ccc2c(=O)n([C@H](C)[C@](O)(Cn3cncn3)c3ccc(F)cc3F)nnc2c1 | 0.0156 (≈ 0.0364 µM) | 0.125 (≈ 0.292 µM) | 2 (≈ 4.67 µM) | 0.0156 (≈ 0.0364 µM) | 0.0313 (≈ 0.0731 µM) | 0.0156 (≈ 0.0364 µM) | 2 (≈ 4.67 µM) | – | –
C[C@@H](n1nnc2ccc(F)cc2c1=O)[C@](O)(Cn1cncn1)c1ccc(F)cc1F | 0.0625 (≈ 0.15 µM) | 0.25 (≈ 0.6 µM) | 16 (≈ 38.4 µM) | – | – | – | – | – | –
C[C@@H](n1nnc2c(Cl)cccc2c1=O)[C@](O)(Cn1cncn1)c1ccc(F)cc1F | 0.25 (≈ 0.578 µM) | 0.25 (≈ 0.578 µM) | > 64 | – | – | – | – | – | –
C[C@@H](n1nnc2c(Br)cccc2c1=O)[C@](O)(Cn1cncn1)c1ccc(F)cc1F | 0.5 (≈ 1.05 µM) | 0.25 (≈ 0.524 µM) | > 64 | – | – | – | – | – | –
C[C@@H](n1nnc2cccc(Cl)c2c1=O)[C@](O)(Cn1cncn1)c1ccc(F)cc1F | 0.25 (≈ 0.578 µM) | 0.0625 (≈ 0.144 µM) | 32 (≈ 73.9 µM) | – | – | – | – | – | –
C[C@@H](n1nnc2ccc([N+](=O)[O-])cc2c1=O)[C@](O)(Cn1cncn1)c1ccc(F)cc1F | 0.5 (≈ 1.13 µM) | 2 (≈ 4.51 µM) | > 64 | – | – | – | – | – | –
C[C@@H](n1nnc2cc(Cl)c(F)cc2c1=O)[C@](O)(Cn1cncn1)c1ccc(F)cc1F | 0.125 (≈ 0.277 µM) | 0.25 (≈ 0.555 µM) | 8 (≈ 17.7 µM) | – | – | – | – | – | –
COc1ccc2nnn([C@H](C)[C@](O)(Cn3cncn3)c3ccc(F)cc3F)c(=O)c2c1 | 0.0625 (≈ 0.146 µM) | 1 (≈ 2.33 µM) | 32 (≈ 74.7 µM) | – | – | – | – | – | –
Cc1ccc2nnn([C@H](C)[C@](O)(Cn3cncn3)c3ccc(F)cc3F)c(=O)c2c1 | 0.0625 (≈ 0.152 µM) | 0.25 (≈ 0.606 µM) | 16 (≈ 38.8 µM) | – | – | – | – | – | –
C[C@@H](n1nnc2ccc(C(F)(F)F)cc2c1=O)[C@](O)(Cn1cncn1)c1ccc(F)cc1F | 0.25 (≈ 0.536 µM) | 2 (≈ 4.29 µM) | > 64 | – | – | – | – | – | –
C[C@@H](n1cnc2cc(Cl)ccc2c1=O)[C@](O)(Cn1cncn1)c1ccc(F)cc1F [ALBACONAZOLE] | 0.0313 (≈ 0.0725 µM) | 0.0313 (≈ 0.0725 µM) | 0.25 (≈ 0.579 µM) | 0.0156 (≈ 0.0361 µM) | 0.0156 (≈ 0.0361 µM) | 0.0625 (≈ 0.145 µM) | 1 (≈ 2.32 µM) | 8 (≈ 18.5 µM) | 4 (≈ 9.26 µM)
OC(Cn1cncn1)(Cn1cncn1)c1ccc(F)cc1F [FLUCONAZOLE] | 0.5 (≈ 1.63 µM) | 0.5 (≈ 1.63 µM) | > 64 | 0.5 (≈ 1.63 µM) | 1 (≈ 3.27 µM) | 2 (≈ 6.53 µM) | 32 (≈ 104 µM) | > 64 | > 64
C[C@@H](c1ncncc1F)[C@](O)(Cn1cncn1)c1ccc(F)cc1F [VORICONAZOLE] | 0.0313 (≈ 0.0896 µM) | 0.0625 (≈ 0.179 µM) | 0.25 (≈ 0.716 µM) | 0.0156 (≈ 0.0447 µM) | 0.0156 (≈ 0.0447 µM) | 0.0156 (≈ 0.0447 µM) | 0.25 (≈ 0.716 µM) | > 64 | > 64
